Measurements from patent US20090304766A1, “LOCALIZED DELIVERY OF DRUG COMBINATIONS” (priority 2005, published 2009).

Assay: in vitro combination dose-effect analysis (cytotoxicity, Chou-Talalay combination index)
Format: cell-based
Conditions: FIG. 2D; single agent compared with combination
Description: By way of illustration, individual agents and various combinations thereof are tested for their biological effect on cell culture or a cell-free system, for example causing cell death or inhibiting cell growth, at various concentration levels. The concentration levels of the preset ratios are plotted against the percentage cell survival to obtain a correlation which can be manipulated by known and established mathematical techniques to calculate a “combination index” (CI). The mathematics are such that a CI of 1 (i.e., 0.9-1.1) describes an additive effect of the drugs; a CI>1 (i.e., >1.1) represents an antagonist effect; and a CI of <1 (i.e., <0.9) represents a synergistic effect.
As shown, agents A and B are tested individually and together at two different ratios for their ability to cause cell death or cell stasis as assessed by the MTT assay described below. Initially, correlations between the concentration of drugs A, B, and the two different combination ratios (Y:Z and X:Y) are plotted against cytotoxicity, calculated as a percentage based on the survival of untreated control cells. […] Once this correlation has been established, the cell survival or fraction affected (fa) can be used as a surrogate for concentration in calculating the CI. […]

Structure (SMILES) | concentration required to achieve a 90% cell kill on its own versus when combined at a non-antagonistic ratio
CCc1c2c(nc3ccc(OC(=O)N4CCC(N5CCCCC5)CC4)cc13)-c1cc3c(c(=O)n1C2)COC(=O)[C@]3(O)CC [irinotecan] | significantly higher
N.N.O=C([O-])C1(C(=O)[O-])CCC1.[Pt+2] [carboplatin] | significantly higher
